Data published in US12415770B2, “Modulators of liver receptor homologue 1 (LRH-1) and uses” (Emory University, priority 2017, dated 2025).

Legend:
LRH-1 = molecular target: T1, LRH-1 (Homo sapiens, UniProt O00482); assay: Luciferase reporter assay (SHP-luc) in HeLa cells transfected with full-length LRH-1; type: cell-based; conditions: for EC50 / EC50 (μM): HeLa cells, SHP-luc reporter, 24 hours, 0.03-30 μM; for Relative Efficacy: fold increase over baseline (DMSO-treated cells) relative to the fold increase induced by RJW100
T1 construct: The transfected plasmids included full-length LRH-1 in a pCI vector; expressed in transfected cells; host or cells: HeLa
Experimental: EC50 and Relative Activity values were calculated from luciferase reporter assays.

LRH-1 LBD = molecular target: T2, LRH-1 LBD (Homo sapiens, UniProt O00482); assay: Thermofluor (DSF) assay, purified LRH-1 LBD-His protein; type: binding; conditions: for ΔTm at 50 µM: read-out: ΔTm (mean +/− SEM) (° C.)
T2 construct: LRH-1 LBD (residues 299-541) in the pMSC7 vector was expressed in BL21 (DE3) pLysS E. coli; made in house; host or cells: E. coli BL21 (DE3) pLysS
Experimental: Thermofluor assays—Purified LRH-1 LBD-His protein (0.2 mg/ml) was incubated overnight with 50 μM of each compound at 4° C. The final DMSO concentration in the reactions was 1%. SYPRO orange dye (Invitrogen) was then added at a 1:1000 dilution. Reactions were heated at a rate of 0.5° C. per minute, using a StepOne Plus Real Time PCR System (ThermoFisher). […] Data were analyzed by first subtracting baseline fluorescence (ligands+SYPRO with no protein) and then fitting the curves using the Bolzman equation (GraphPad Prism, v6) to determine the Tm. […]

[1] = 50 μM compound, relative to DLPC-bound LRH-1

T1 sequence (O00482 whole entry): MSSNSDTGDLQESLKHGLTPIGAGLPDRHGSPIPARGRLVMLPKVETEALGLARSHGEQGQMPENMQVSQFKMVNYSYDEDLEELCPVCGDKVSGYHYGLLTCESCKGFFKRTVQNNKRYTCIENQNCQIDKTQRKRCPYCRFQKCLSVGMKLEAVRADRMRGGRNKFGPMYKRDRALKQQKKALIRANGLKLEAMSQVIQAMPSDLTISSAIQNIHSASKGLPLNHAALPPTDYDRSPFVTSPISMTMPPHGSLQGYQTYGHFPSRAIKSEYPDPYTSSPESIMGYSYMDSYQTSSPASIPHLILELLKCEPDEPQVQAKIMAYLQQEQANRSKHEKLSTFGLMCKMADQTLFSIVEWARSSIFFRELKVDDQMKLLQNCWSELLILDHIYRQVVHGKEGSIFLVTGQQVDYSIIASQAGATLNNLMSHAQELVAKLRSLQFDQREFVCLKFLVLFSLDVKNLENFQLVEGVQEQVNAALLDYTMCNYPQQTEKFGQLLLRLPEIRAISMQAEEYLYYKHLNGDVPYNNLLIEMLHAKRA
T2 sequence (O00482 299-541): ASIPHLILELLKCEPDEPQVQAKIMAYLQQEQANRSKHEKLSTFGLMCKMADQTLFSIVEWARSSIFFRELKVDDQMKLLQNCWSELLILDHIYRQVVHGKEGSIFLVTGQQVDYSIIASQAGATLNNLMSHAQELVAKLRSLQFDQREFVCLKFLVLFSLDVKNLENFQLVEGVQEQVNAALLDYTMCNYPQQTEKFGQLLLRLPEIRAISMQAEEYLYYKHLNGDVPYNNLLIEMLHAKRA

EC50 (LRH-1) | Relative Efficacy (LRH-1) | ΔTm at 50 µM (LRH-1 LBD; [1]) | EC50 (μM) (LRH-1) | SMILES | LRH-1 activation (LRH-1; WT LRH-1) | stabilization of LRH-1-ligand complex / Tm shift (LRH-1 LBD; WT LRH-1) | ΔTm (mean +/− SEM) (° C.) (LRH-1 LBD; [1])
– | – | – | – | C=C(c1ccccc1)C12CCC(OS(=O)(=O)NC(N)=O)C1CC(CCCCCC)=C2c1ccccc1 (stereo not drawn) [Compound 50-endo, (Endo or Exo)-5-hexyl-4-phenyl-3a-(1-phenylvinyl)-1,2,3,3a,6,6a-hexahydropentalen-1-yl carbamoylsulfamate] | comparable or slightly higher LRH-1 activation | greatly stabilized the LRH-1-ligand complex | –
> 30000 nM | 0.9 | < 1 °C | – | C=C(c1ccccc1)[C@@]12CC[C@@H](O)C1CC(CCCCCC)=C2c1cc(O)ccc1F (mixture of isomers) [Compound 16f, (Exo)-4-(2-fluoro-5-hydroxyphenyl)-5-hexyl-3a-(1-phenylvinyl)-1,2,3,3a,6,6a-hexahydropentalen-1-ol] | – | – | –
– | 0.13 | 0.4 °C | – | CCCCCCC1=C(c2ccccc2)[C@]2(C(C)c3ccccc3)CC[C@H](O)C2C1 (stereo partly drawn) [Compound 39-endo, (Endo or Exo)-5-hexyl-4-phenyl-3a-(1-phenylethyl)-1,2,3,3a,6,6a-hexahydropentalen-1-ol] | – | – | –
– | 0.70 | < 1 °C | cnc | C=C(c1ccccc1)[C@@]12CC[C@@H](O)C1CC(CCCCCC)=C2c1cccc(N)c1 (mixture of isomers) [Compound 15g, (Exo)-4-(3-aminophenyl)-5-hexyl-3a-(1-phenylvinyl)-1,2,3,3a,6,6a-hexahydropentalen-1-ol] | – | – | –
2000 nM | 0.45 | < 1 °C | – | C=C(c1ccccc1)[C@@]12CC[C@@H](N=[N+]=[N-])C1CC(CCCCCC)=C2c1ccccc1 (stereo partly drawn) [Compound 31-exo, (Endo or Exo)-5-hexyl-4-phenyl-3a-(1-phenylvinyl)-1,2,3,3a,6,6a-hexahydropentalen-1-azide] | – | – | –
1800 nM | 3.39 | 3 °C | – | C=C(c1ccccc1)[C@@]12CC[C@@H](O)[C@@H]1CC(CCCCCCCCC(=O)O)=C2c1ccccc1 (relative stereo) [Compound 10f, 9-(6-exo-hydroxy-3-phenyl-3a-(1-phenylvinyl)-1,3a,4,5,6,6a-hexahydropentalen-2-yl)nonanoic acid] | – | – | –
– | −0.42 | < 1 °C | – | C=C(c1ccccc1)[C@@]12CCC(=O)C1CC(CCCCCC)=C2c1ccccc1 (stereo in doubt) [Compound 27, 5-hexyl-4-phenyl-3a-(1-phenylvinyl)-3,3a,6,6a-tetrahydropentalen-1 (2H)-one] | – | – | –
– | 0.99 | 1.5 °C | cnc | C=C(c1ccccc1)[C@@]12CC[C@@H](O)C1CC(CCCCCC)=C2c1cc(N)cc(F)c1 (mixture of isomers) [Compound 18g, (Exo)-4-(3-amino-5-fluorophenyl)-5-hexyl-3a-(1-phenylvinyl)-1,2,3,3a,6,6a-hexahydropentalen-1-ol] | – | – | –
4000 nM | 2.48 | 4.4 °C | – | C=C(c1ccccc1)[C@@]12CC[C@@H](O)[C@@H]1CC(CCCCCCCC(=O)O)=C2c1ccccc1 (relative stereo) [Compound 9f, 8-(6-exo-hydroxy-3-phenyl-3a-(1-phenylvinyl)-1,3a,4,5,6,6a-hexahydropentalen-2-yl)octanoic acid] | – | – | –
– | 1.43 | 2.3 °C | cnc | C=C(c1ccccc1)C12CCC(O)C1CC(CCCC(=O)O)=C2c1ccccc1 (stereo not drawn) [Compound 5f, 4-(6-exo-hydroxy-3-phenyl-3a-(1-phenylvinyl)-1,3a,4,5,6,6a-hexahydropentalen-2-yl)butanoic acid] | – | – | –
> 30000 nM | 1.12 | 5.6 °C | – | C=C(c1ccccc1)C12CCC(O)C1CC(CCCCCCCCOP(=O)([O-])OCC[N+](C)(C)C)=C2c1ccccc1 (stereo not drawn) [Compound 9g, 8-(6-exo-hydroxy-3-phenyl-3a-(1-phenylvinyl)-1,3a,4,5,6,6a-hexahydropentalen-2-yl)octyl (2-(trimethylammonio)ethyl) phosphate] | – | – | –
– | 0.14 | 1.54 °C | cnc | C=C(c1ccccc1)[C@@]12CC[C@@H](OC(N)=O)C1CC(CCCCCC)=C2c1ccccc1 (stereo partly drawn) [Compound 29-exo, (Endo or Exo)-5-hexyl-4-phenyl-3a-(1-phenylvinyl)-1,2,3,3a,6,6a-hexahydropentalen-1-yl carbamate] | – | – | –
– | 0.42 | < 1 °C | cnc | C=C(c1ccccc1OC)[C@@]12CC[C@@H](O)C1CC(CCCCCC)=C2c1ccccc1 (mixture of isomers) [Compound 22, (Exo)-5-hexyl-3a-(1-(2-methoxyphenyl)vinyl)-4-phenyl-1,2,3,3a,6,6a-hexahydropentalen-1-ol] | – | – | –
1000 nM | 1.74 | 3.3 °C | – | C=C(c1ccccc1)C12CCC(O)C1CC(CCCCCCO)=C2c1ccccc1 (stereo not drawn) [Compound 7e, Exo-5-(6-hydroxyhexyl)-4-phenyl-3a-(1-phenylvinyl)-1,2,3,3a,6,6a-hexahydropentalen-1-ol] | – | – | –
1000 nM | 0.14 | 1.1 °C | – | C=C(c1ccccc1)[C@@]12CC[C@@H](OS(C)(=O)=O)C1CC(CCCCCC)=C2c1ccccc1 (stereo partly drawn) [Compound 30-exo, (Endo or Exo) 5-hexyl-4-phenyl-3a-(1-phenylvinyl)-1,2,3,3a,6,6a-hexahydropentalen-1-yl methanesulfonate] | – | – | –
300 nM | 1.74 | 2.5 °C | – | C=C(c1ccccc1)[C@@]12CC[C@@H](O)[C@@H]1CC(CCCCCCCCCCC(=O)O)=C2c1ccccc1 (relative stereo) [Compound 12f, 11-(6-exo-hydroxy-3-phenyl-3a-(1-phenylvinyl)-1,3a,4,5,6,6a-hexahydropentalen-2-yl)undecanoic acid] | – | – | –
– | 0.56 | – | – | C=C(c1ccccc1)C12CCC(N)C1CC(CCCCCC)=C2c1ccccc1 (stereo not drawn) [Compound 33-endo, (Endo or Exo)-5-hexyl-4-phenyl-3a-(1-phenylvinyl)-1,2,3,3a, 6,6a-hexahydropentalen-1-amine] | – | – | ns (Ns = Tm changes were less than 1° C.)
700 nM | 3.70 | 1.5 °C | – | C=C(c1ccccc1)[C@@]12CC[C@@H](O)C1CC(CCCCCCCCOC(C)=O)=C2c1ccccc1 (stereo partly drawn) [Compound 47-exo, (Exo or Endo) 8-(6-hydroxy-3-phenyl-3a-(1-phenylvinyl)-1,3a,4,5,6,6a-hexahydropentalen-2-yl)octyl acetate] | – | – | –
5000 nM | 0.86 | < 1 °C | – | C=C(c1ccc(O)cc1)[C@@]12CC[C@@H](O)C1CC(CCCCCC)=C2c1ccccc1 (mixture of isomers) [Compound 23b, (Exo)-5-hexyl-3a-(1-(4-hydroxyphenyl)vinyl)-4-phenyl-1,2,3,3a,6,6a-hexahydropentalen-1-ol] | – | – | –
– | 0.81 | 2.9 °C | cnc | C=C(c1ccccc1)C12CCC(O)C1CC(CCCCCCCOP(=O)([O-])OCC[N+](C)(C)C)=C2c1ccccc1 (stereo not drawn) [Compound 8g, 7-(6-exo-hydroxy-3-phenyl-3a-(1-phenylvinyl)-1,3a,4,5,6,6a-hexahydropentalen-2-yl)heptyl (2-(trimethylammonio)ethyl) phosphate] | – | – | –
